Laboratory results from patent US20240100074A1, “Clinical Dosing Schedule of Inositol Phosphate Oligo(Ethylene Glycol) Compounds” (VIFOR (INTERNATIONAL) AG, priority 2021, published 2024).
“Also recorded” adds a separate entry of the source.

Assays:
[1] = Profile of (I a) compared to pyrophosphate and bisphosphonates
[2] = test system: Abcc6−/− mice (mouse model of PXE); assay: Prevention study: histologic (von Kossa) evaluation of vibrissae calcification in muzzle skin; type: in vivo; details: for calcification in the dermal sheath of vibrissae in muzzle skin (von Kossa) / inhibition of ectopic calcification: osmotic pump
Description: (§1) Abcc6^−/− knock-out mice (Abcc6^−/−) on C57BL/6J background were generated as described previously (J. F. Klement et al., Mol Cell Biol 2005, 25, 8299). C57BL/6J mice from The Jackson Laboratory (Bar Harbor, ME) were used as wild-type controls (WT). In prevention study, 6-week-old Abcc6^−/− mice were administered with (I a) by periodic subcutaneous injections or continuous administration via subcutaneous ALZET osmotic pump model 2006 (DURECT Corp, Cupertino, CA) for duration of 6 weeks. In reversal study, 12-week-old Abcc6^−/− mice were administered (I a) at 4 mg/kg/day via osmotic pumps for 12 weeks. All mice were maintained on a standard diet and sacrificed at 12 weeks of age, 6 weeks after initiation of treatment (prevention study), or at 24 weeks of age, 12 weeks after initiation of treatment (reversal study). All protocols were approved by the Institutional Animal Care and Use Committee of Thomas Jefferson University.
(§2) Muzzle skin biopsies (left side) from euthanized mice were collected and fixed in 10% phosphate-buffered formalin and embedded in paraffin. Paraffin sections (6 μm) were stained with Hematoxylin and Eosin or von Kossa using standard procedures. To quantify the mineral deposition, muzzle skin biopsies (right side) were harvested and decalcified with 1.0 M HCl for 48 hours at room temperature. Solubilized calcium was then determined by a colorimetric assay (J. Huang et al., J Invest Dermatol 2019, 139, 1254; Q. Li, J. Huang et al., J Invest Dermatol 2019, 139, 360). The values were normalized to tissue weight. Whole blood was collected by retro-orbital bleeding or cardiac puncture. For subcutaneously injected mice, whole blood was collected 30 minutes after injection of (I a). Whole blood was collected at 2 days, 3 weeks, and 6 weeks after treatment initiation in mice receiving (I a). The concentrations of (I a) in heparin plasma were analyzed on an ultra-fast liquid chromatography, as described previously (A. E. Schantl et al., Nat Commun 2020, 11, 721). The data was analyzed using Kruskal-Wallis nonparametric test.
The Abcc6^−/− mice were administered (I a) by subcutaneous implantation of osmotic pumps at doses of 0.16, 0.8, 4, 20, and 100 mg/kg/day. The untreated wild-type and Abcc6^−/− mice served as negative and positive controls of ectopic calcification. Treatment was initiated at 6 weeks of age, a time point at the earliest stages of ectopic calcification in the Abcc6^−/− mice. The extent of ectopic calcification after 6 weeks of treatment was analyzed by two independent assays measuring calcification in the dermal sheath of vibrissae in muzzle skin, an early and reliable biomarker in this mouse model of PXE. One piece of muzzle skin was processed for semi-quantitative histological evaluation. […] The therapeutic effects of (I a) were substantiated by the calcium content in another muzzle skin biopsy measured using a quantitative chemical assay (FIG. 2A).
The inventors next examined whether periodic, bolus subcutaneous injections of (I a) at the same dose of 4 mg/kg/day, would have similar therapeutic benefits. Six-week-old Abcc6^−/− mice were administered (I a) by subcutaneous injections three times per week corresponding to 4 mg/kg/day. […] Thus, subcutaneous injection of (I a) is effective, albeit less than with continuous delivery at the same dose of 4 mg/kg/day on inhibition of ectopic calcification.
Three additional dose levels of (I a) at weekly subcutaneous injections for a duration of 6 weeks were tested to evaluate the inhibitory effects of (I a) (FIG. 1A). […] The semi-quantitative histologic evaluations of (I a) treatment were consistent with the calcium contents in the muzzle skin measured by a chemical assay (FIG. 2A).

[3] = test system: Abcc6−/− mice (mouse model of PXE); assay: Treatment (reversal) study: histopathology and calcium assay of muzzle skin in old mice; type: in vivo; details: 12-week-old mice, osmotic pump 4 mg/kg/day for 12 weeks, analysed at 24 weeks of age
Description: as §1, with “All mice were maintained on a standard diet and sacrificed at 12 weeks of age, 6 weeks after initiation of treatment (prevention study), or at 24 weeks of age, 12 weeks after initiation of treatment (reversal study). All protocols were approved by the Institutional Animal Care and Use Committee of Thomas Jefferson University.” left out
Muzzle skin biopsies (left side) from euthanized mice were collected and fixed in 10% phosphate-buffered formalin and embedded in paraffin. […] To quantify the mineral deposition, muzzle skin biopsies (right side) were harvested and decalcified with 1.0 M HCl for 48 hours at room temperature. Solubilized calcium was then determined by a colorimetric assay (J. Huang et al., J Invest Dermatol 2019, 139, 1254; Q. Li, J. Huang et al., J Invest Dermatol 2019, 139, 360). […] The concentrations of (I a) in heparin plasma were analyzed on an ultra-fast liquid chromatography, as described previously (A. E. Schantl et al., Nat Commun 2020, 11, 721). The data was analyzed using Kruskal-Wallis nonparametric test. […]

[4] = Plasma concentrations of (I a) in treated Abcc6−/− mice; type: in vivo, mouse
Description: as §2
(I a) was undetectable in plasma of untreated Abcc6^−/− mice.
The Tmax of (I a) in plasma after subcutaneous administration in Sprague Dawley rats was reported to be about 30 minutes after injection, the inventors therefore measured (I a) concentrations in plasma 30 minutes after injection in the Abcc6^−/− mice.

[5] = subcutaneous administration, Sprague Dawley rats; cited from earlier work
[6] = test system: Abcc6−/− mice (mouse model of PXE); assay: Prevention study: quantitative chemical calcium assay of muzzle skin biopsies; type: in vivo; details: 6 weeks
Description: as §1
Muzzle skin biopsies (left side) from euthanized mice were collected and fixed in 10% phosphate-buffered formalin and embedded in paraffin. […] To quantify the mineral deposition, muzzle skin biopsies (right side) were harvested and decalcified with 1.0 M HCl for 48 hours at room temperature. Solubilized calcium was then determined by a colorimetric assay (J. Huang et al., J Invest Dermatol 2019, 139, 1254; Q. Li, J. Huang et al., J Invest Dermatol 2019, 139, 360). […] The concentrations of (I a) in heparin plasma were analyzed on an ultra-fast liquid chromatography, as described previously (A. E. Schantl et al., Nat Commun 2020, 11, 721). The data was analyzed using Kruskal-Wallis nonparametric test.
The Abcc6^−/− mice were administered (I a) by subcutaneous implantation of osmotic pumps at doses of 0.16, 0.8, 4, 20, and 100 mg/kg/day. […] The extent of ectopic calcification after 6 weeks of treatment was analyzed by two independent assays measuring calcification in the dermal sheath of vibrissae in muzzle skin, an early and reliable biomarker in this mouse model of PXE. One piece of muzzle skin was processed for semi-quantitative histological evaluation. […]

[7] = test system: cardiovascular calcifications; details: patients on hemodialysis, 1-year treatment; cited from earlier work

For `COCCOCCOC1C(OP(=O)(O)O)C(OCCOCCOC)C(OP(=O)(O)O)C(OP(=O)(O)O)C1OP(=O)(O)O` (centres unmarked) [(I a), bis-oligoethylene myo-inositol tetrakisphosphate], the anti-osteoclastic activity [1] was “no anti-osteoclastic activity”, the local tolerability [1] was “good” and the subcutaneous bioavailability [1] was “high”. For the same molecule, the “calcification in the dermal sheath of vibrissae in muzzle skin (von Kossa)” value (shortened to “calcification in the dermal sheath”) ([2]; 0.16 mg/kg/day, 6 weeks) was “no effects”, the “calcification in the dermal sheath” value ([2]; 0.8 mg/kg/day, 6 weeks) was “evident but significantly reduced calcification” and the “calcification in the dermal sheath” value ([2]; 4 mg/kg/day (and above), 6 weeks, from 6 weeks of age, 4 mg/kg/day) was “very little, if any, calcification; also recorded: little, if any, calcification; also recorded: completely prevented ectopic calcification; also recorded: complete response”. For the same molecule, the “inhibition of ectopic calcification” value ([2]; 4 mg/kg/day, 6 weeks) was ~100%, the “inhibition of ectopic calcification” value ([2]; 100 mg/kg/day, 6 weeks) was ~100% and the “calcification, subcutaneous injections overall” value ([2]; subcutaneous injections at different doses and frequencies (thrice weekly and once weekly)) was “decreased calcification; also recorded: prevented calcification”. The “calcification in the muzzle skin (histology)” value ([2]; subcutaneous injections three times per week corresponding to 4 mg/kg/day, 6 weeks) was “significantly reduced calcification”, the “ectopic calcification in the muzzle skin (histology)” value ([2]; weekly subcutaneous injection, 0.8 mg/kg/day, 6 weeks) was “significantly reduced ectopic calcification” and the “calcification in the muzzle skin (histology)” value ([2]; weekly subcutaneous injection, 4 mg/kg/day, 6 weeks) was “significantly reduced calcification”. The “degree of ectopic calcification in muzzle skin after treatment” value [3] was “prevented further calcification; also recorded: calcification similar to 12-week-old Abcc6^−/− control mice; also recorded: stabilized existing calcification”, the “degree of ectopic calcification in muzzle skin after treatment” value ([3]; listed as INS-3001) was “stabilize existing calcification” and the “plasma levels over time” value ([4]; 2 days, 3 weeks and 6 weeks after implantation of the osmotic pump) was “remained largely constant; also recorded: largely consistent during treatment”. For the same molecule, the “plasma levels 30 minutes after subcutaneous injection” value ([4]; bolus subcutaneous injection versus pump administered groups) was “much higher than that in the pump administered groups”, the “plasma concentrations versus dose, all groups” value ([4]; osmotic pump (prior to sacrifice) or 30 minutes after subcutaneous injection) was “scaled relatively well with the dose administered” and the “plasma concentrations versus dose” value ([4]; osmotic pump, 0.16 to 100 mg/kg/day) was “dose-dependent”. For the same molecule, the Tmax in plasma [5] was “about 30 minutes”, the “minimum active dose / minimum effective dose” value ([6]; continuous osmotic pump administration) was 0.8 mg/kg/day and the “inhibition of ectopic calcification by calcium assay” value ([6]; osmotic pump, 0.8 mg/kg/day) was 59%. The “inhibition of ectopic calcification by calcium assay” value ([6]; subcutaneous injections three times per week corresponding to 4 mg/kg/day) was 63%.
In the case of `O=P(O)(O)O[C@H]1[C@H](OP(=O)(O)O)[C@@H](OP(=O)(O)O)[C@H](OP(=O)(O)O)[C@@H](OP(=O)(O)O)[C@H]1OP(=O)(O)O` [IP6], the “progression of cardiovascular calcifications” value [7] is listed as “stop the progression, albeit without regression”.
